Measured values from US20230242936A1, “DUAL PROMOTER SYSTEMS” (Seattle Children's Hospital (dba Seattle Children's …, priority 2020, published 2023).

Test system: CA-STAT5aER
Test: Logic gate system with CA-STAT5aER payload, target reporter gene expression
Assay type: cell-based
Conditions: host cells co-cultured with CD19+ cells and treated with tamoxifen
Protocol: A logic gate system similar to the system depicted in FIG. 9 and FIG. 10 are examined. Dual promoter nucleic acids are prepared and introduced into host cells. The nucleic acids include an inducible iSynPro promoter and either a constitutively activated signal transducer and activator of transcription 5a (CA-STAT5a) protein (FIG. 9), a fusion protein of CA-STAT5a and of an estrogen receptor (CA-STAT5aER) (FIG. 10), or an alternative fusion protein of CA-STAT5a and of an estrogen receptor (CA-STAT5bER). Host cells are stimulated with Raji cells (CD19+), or PMA/ionomycin and are analyzed by FACS analysis for GFP and EGFRt expression.

CC/C(=C(\c1ccccc1)c1ccc(OCCN(C)C)cc1)c1ccccc1 [tamoxifen, 2-(4((1Z)-1,2-diphenyl-1-butenyl)phenoxy)-N,N-dimethyl-ethanamine]
target reporter gene expression: express target reporter gene
